The results in this text go back to ChEMBL document CHEMBL3045439, “Isoforms of the heteropteran Nezara viridula ecdysone receptor: protein characterisation, RH5992 insecticide binding and homology modelling” (Pest Manag Sci, 2011).

The target in experiment [1] is T1, Ecdysone receptor (Anthonomus grandis, UniProt B8RG26+Q4W6C8).
T1 sequence (B8RG26 whole entry): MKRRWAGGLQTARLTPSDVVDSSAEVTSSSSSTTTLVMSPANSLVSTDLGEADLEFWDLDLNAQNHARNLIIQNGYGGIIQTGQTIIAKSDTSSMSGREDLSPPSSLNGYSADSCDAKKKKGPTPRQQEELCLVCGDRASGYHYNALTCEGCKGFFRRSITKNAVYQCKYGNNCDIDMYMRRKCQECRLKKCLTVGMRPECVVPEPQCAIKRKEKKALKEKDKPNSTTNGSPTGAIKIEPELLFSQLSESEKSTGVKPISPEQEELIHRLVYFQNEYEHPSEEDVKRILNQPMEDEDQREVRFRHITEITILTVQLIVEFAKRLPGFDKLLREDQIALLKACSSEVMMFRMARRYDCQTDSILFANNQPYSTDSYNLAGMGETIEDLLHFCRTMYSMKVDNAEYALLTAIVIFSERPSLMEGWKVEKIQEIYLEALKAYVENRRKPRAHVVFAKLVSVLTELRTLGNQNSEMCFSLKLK
T1 sequence (Q4W6C8 whole entry): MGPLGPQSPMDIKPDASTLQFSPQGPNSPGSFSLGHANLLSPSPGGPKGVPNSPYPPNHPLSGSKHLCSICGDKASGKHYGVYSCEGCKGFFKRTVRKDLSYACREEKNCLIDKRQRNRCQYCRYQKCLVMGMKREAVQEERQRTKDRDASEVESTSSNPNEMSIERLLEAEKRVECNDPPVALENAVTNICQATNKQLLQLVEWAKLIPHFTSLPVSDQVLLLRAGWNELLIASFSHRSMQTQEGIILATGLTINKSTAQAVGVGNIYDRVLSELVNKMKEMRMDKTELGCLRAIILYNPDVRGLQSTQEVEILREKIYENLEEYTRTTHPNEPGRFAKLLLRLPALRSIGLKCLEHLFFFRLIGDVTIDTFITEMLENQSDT
Description: Binding affinity to Anthonomus grandis ecdysone receptor (EcR). The class given is protein-complex assay.

The target in experiment [2] is T2, Ecdysone receptor (Locusta migratoria, UniProt O97095+Q6V7U7).
T2 sequence (O97095 whole entry): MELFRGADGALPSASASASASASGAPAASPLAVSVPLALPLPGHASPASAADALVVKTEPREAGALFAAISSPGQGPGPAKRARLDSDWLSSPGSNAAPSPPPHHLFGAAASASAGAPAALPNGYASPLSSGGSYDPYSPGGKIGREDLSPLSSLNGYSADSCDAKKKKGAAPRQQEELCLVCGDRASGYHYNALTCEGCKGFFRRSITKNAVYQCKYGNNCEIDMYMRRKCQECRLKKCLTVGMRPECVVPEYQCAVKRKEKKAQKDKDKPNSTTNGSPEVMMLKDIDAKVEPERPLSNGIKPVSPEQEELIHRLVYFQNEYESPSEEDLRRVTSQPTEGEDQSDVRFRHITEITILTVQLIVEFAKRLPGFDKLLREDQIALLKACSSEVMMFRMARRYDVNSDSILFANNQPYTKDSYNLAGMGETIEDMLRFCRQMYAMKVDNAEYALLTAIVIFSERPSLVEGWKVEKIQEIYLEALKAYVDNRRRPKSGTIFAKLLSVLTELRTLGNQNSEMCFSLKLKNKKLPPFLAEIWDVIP
T2 sequence (Q6V7U7 whole entry): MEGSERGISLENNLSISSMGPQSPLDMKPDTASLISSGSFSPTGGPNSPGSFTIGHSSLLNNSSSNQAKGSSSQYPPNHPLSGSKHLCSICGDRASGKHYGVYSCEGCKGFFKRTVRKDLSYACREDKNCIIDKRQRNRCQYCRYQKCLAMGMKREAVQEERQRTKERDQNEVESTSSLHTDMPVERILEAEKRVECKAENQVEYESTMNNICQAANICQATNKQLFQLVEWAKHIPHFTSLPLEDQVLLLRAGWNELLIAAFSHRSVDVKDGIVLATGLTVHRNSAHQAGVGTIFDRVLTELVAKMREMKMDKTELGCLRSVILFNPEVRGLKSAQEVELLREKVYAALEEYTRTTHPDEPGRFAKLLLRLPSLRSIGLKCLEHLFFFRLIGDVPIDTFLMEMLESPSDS
Kind of experiment: Binding affinity to Locusta migratoria ecdysone receptor (EcR). Type of experiment: protein-complex assay.

A word on the Ki: it is a measure of affinity in units of concentration, obtained from inhibition or displacement. High values mean a looser hold on the target, low ones a stronger hold on the target. In the case of `CCc1ccc(C(=O)NN(C(=O)c2cc(C)cc(C)c2)C(C)(C)C)cc1` [TEBUFENOZIDE], the Ki in experiment [1] is 12.6 µM; in experiment [2], 100 µM.
